Test results from US20050288185A1, “Substituted phenyluracils” (priority 2002, published 2005).

What was measured:
[1] = log P determination by HPLC (reversed-phase C18), EEC Directive 79/831 Annex V.A8; format: physicochemical; details: reversed-phase C18 HPLC column; pH 2.3; HPLC reversed-phase C18, 43° C.
Protocol: The log P values given in the table were determined in accordance with EEC Directive 79/831 Annex V.A8 by HPLC (High Performance Liquid Chromatography) using a reversed-phase column (C 18). Temperature: 43° C. (a) Mobile phases for the determination in the acidic range: 0.1% aqueous phosphoric acetonitrile; linear gradient from 10% acetonitrile to 90% acetonitrile—the sponding measurement results in Table 1 are marked ^a). (b) Mobile phases for the determination in the neutral range: 0.01 molar aqueous phosphate buffer solution, acetonitrile; linear gradient from 10% acetonitrile to 90% acetonitrile—the corresponding measurement results in Table 1 are marked^b). Calibration was carried out using unbranched alkan-2-ones (with 3 to 16 carbon atoms) with known log P values (determination of the log P values by the retention times using linear interpolation between two successive alkanones).

[2] = test system: weeds; experiment: Pre-emergence test (Example A), activity against weeds; format: in vivo; details: soil sprayed 24 hours after sowing, rated after three weeks
Description: (§1) Solvent: 5 parts by weight of acetone
(§2) Emulsifier: 1 part by weight of alkylaryl polyglycol ether
Seeds of the test plants are sown in normal soil.
(§3) After three weeks, the degree of damage to the plants is rated in % damage in comparison to the development of the untreated control.

[3] = test system: weeds; experiment: Post-emergence test (Example B), activity against weeds; format: in vivo; details: test plants 5-15 cm sprayed, rated after three weeks
Description: as §1, §2, §3

Row | SMILES | chromatographic logP [1] | activity against weeds (degree of damage) [2] | activity against weeds (degree of damage) [3]
1 | COC(=O)c1occc1COc1cc(-n2c(=O)cc(C(F)(F)F)n(C)c2=O)c(F)cc1Br [Example 2, methyl 3-[2-bromo-5-(2,6-dioxo-3-methyl-4-trifluoromethyl-3,6-dihydro-2H-pyrimidin-1-yl)-4-fluorophenoxymethyl]furan-2-carboxylate] | 3.34 | very strong activity against weeds | very strong activity against weeds
2 | COC(=O)c1ccoc1COc1cc(-n2c(=O)cc(C(F)(F)F)n(N)c2=O)c(F)cc1Br [Example 3, methyl 2-[2-bromo-5-(3-amino-2,6-dioxo-4-trifluoromethyl-3,6-dihydro-2H-pyrimidin-1-yl)-4-fluorophenoxymethyl]furan-3-carboxylate] | 3 | very strong activity against weeds | very strong activity against weeds
